Assay results taken from ChEMBL document CHEMBL1201862, “PubChem BioAssay data set” (2004).
Values joined by “and” are separate entries in the source; they are usually repeats but may differ in a detail not shown here. Identical values can stand only once.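 Cultured in 96-well plates, cells were exposed to test compound for 48 hours across five concentrations. GI50 = concentration required for 50% inhibition of growth.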 Active and inactive are the calls of the source. Cut-off read from the data, not from the text of the source: active = GI50 up to about 1.1 µM and inactive = higher.

Legend:
Assay in all cases: NCI-60 cell line screen, 48 h
A498 = tested on: A498
A549 = tested on: A549
ACHN = tested on: ACHN
BT-549 = tested on: BT-549
CAKI-1 = tested on: CAKI-1
DU-145 = tested on: DU-145
EKVX = tested on: EKVX
HCT-15 = tested on: HCT-15
HL-60 = tested on: HL-60
HOP-62 = tested on: HOP-62
HOP-92 = tested on: HOP-92
Hs-578T = tested on: Hs-578T
IGROV-1 = tested on: IGROV-1
M14 = tested on: M14
MCF7 = tested on: MCF7
MDA-MB-435 = tested on: MDA-MB-435
MDA-N = tested on: MDA-N
NCI-H226 = tested on: NCI-H226
NCI-H23 = tested on: NCI-H23
NCI-H460 = tested on: NCI-H460
NCI/ADR-RES = tested on: NCI/ADR-RES
OVCAR-4 = tested on: OVCAR-4
OVCAR-5 = tested on: OVCAR-5
OVCAR-8 = tested on: OVCAR-8
SF-268 = tested on: SF-268
SF-295 = tested on: SF-295
SF-539 = tested on: SF-539
SK-MEL-28 = tested on: SK-MEL-28
SK-MEL-2 = tested on: SK-MEL-2
SK-MEL-5 = tested on: SK-MEL-5
SK-OV-3 = tested on: SK-OV-3
SN12C = tested on: SN12C
SNB-19 = tested on: SNB-19
SW-620 = tested on: SW-620
T47D = tested on: T47D
TK-10 = tested on: TK-10
UACC-257 = tested on: UACC-257
UACC-62 = tested on: UACC-62
UO-31 = tested on: UO-31
786-0 = tested on: 786-0
CCRF-CEM = tested on: CCRF-CEM
COLO 205 = tested on: COLO 205
HCT-116 = tested on: HCT-116
HT-29 = tested on: HT-29
K562 = tested on: K562
KM12 = tested on: KM12
LOX IMVI = tested on: LOX IMVI
MDA-MB-231 = tested on: MDA-MB-231
MOLT-4 = tested on: MOLT-4
Malme-3M = tested on: Malme-3M
NCI-H522 = tested on: NCI-H522
OVCAR-3 = tested on: OVCAR-3
PC-3 = tested on: PC-3
RPMI-8226 = tested on: RPMI-8226
SNB-75 = tested on: SNB-75
SR = tested on: SR
U-251 = tested on: U-251
HCC 2998 = tested on: HCC 2998
RXF 393 = tested on: RXF 393

Measured: GI50

COc1ccc(/C=C/C(=O)OC2CC34CCNC35CC(OC5(OC)C2OC)c2ccc(OC)c(O)c24)cc1O (stereo not given)
inactive: A498 > 100 µM | A549 > 100 µM | ACHN > 100 µM and 80.7 µM | BT-549 > 100 µM | CAKI-1 > 100 µM | DU-145 > 100 µM | EKVX > 100 µM | HL-60 24.1 µM | HOP-62 > 100 µM and 61.4 µM | HOP-92 76 µM | Hs-578T > 100 µM and 52.2 µM | IGROV-1 > 100 µM and 86.3 µM | M14 > 100 µM and 88.7 µM | MCF7 > 100 µM and 70 µM | MDA-MB-435 > 100 µM | MDA-N > 100 µM | NCI-H226 > 100 µM | NCI-H23 > 100 µM and 88.1 µM | NCI-H460 > 100 µM and 57.7 µM | NCI/ADR-RES 63 µM | OVCAR-4 > 100 µM and 50.6 µM | OVCAR-5 > 100 µM | OVCAR-8 > 100 µM | SF-268 > 100 µM | SF-295 > 100 µM and 62.4 µM | SF-539 > 100 µM and 87.1 µM | SK-MEL-28 79.4 µM | SK-MEL-2 > 100 µM | SK-MEL-5 57.3 µM | SK-OV-3 > 100 µM | SN12C 55.1 µM | SNB-19 > 100 µM | SW-620 58.1 µM | T47D > 100 µM | TK-10 > 100 µM | UACC-257 > 100 µM | UACC-62 > 100 µM | UO-31 > 100 µM
58.5 µM: HCT-15

Cn1c2c(c3c(=O)[nH]ncc31)CCCc1ccccc1-2
active: HL-60 0.0817 µM | MOLT-4 0.0891 µM | SR 0.0993 µM
inactive: 786-0 27.8 µM | A498 22.4 µM | A549 27.2 µM | ACHN 26.8 µM | BT-549 31.2 µM | CAKI-1 21.8 µM | CCRF-CEM 34.5 µM | COLO 205 17.9 µM | DU-145 37.9 µM | EKVX 11.8 µM | HCT-116 18.1 µM | HOP-62 18.9 µM | HOP-92 12.9 µM | HT-29 28.4 µM | Hs-578T 20.9 µM | IGROV-1 24.5 µM | K562 11.3 µM | KM12 37.3 µM | LOX IMVI 21.6 µM | M14 39.3 µM | MCF7 25 µM | MDA-MB-231 27.5 µM | MDA-MB-435 20.9 µM | Malme-3M 22.5 µM | NCI-H226 27.2 µM | NCI-H23 37.7 µM | NCI-H460 23.6 µM | NCI-H522 18.2 µM | NCI/ADR-RES 36.7 µM | OVCAR-3 26.8 µM | OVCAR-4 37.4 µM | OVCAR-5 45.2 µM | OVCAR-8 24.9 µM | PC-3 26.1 µM | RPMI-8226 17.4 µM | SF-268 29.2 µM | SF-295 32.5 µM | SF-539 35.7 µM | SK-MEL-2 20.8 µM | SK-MEL-5 16.1 µM | SK-OV-3 25.7 µM | SN12C 25.6 µM | SNB-19 42.7 µM | SNB-75 23.6 µM | SW-620 34.3 µM | T47D 38.9 µM | TK-10 28.7 µM | U-251 27.9 µM | UACC-257 34.1 µM | UACC-62 28.7 µM | UO-31 22.6 µM
29.8 µM: HCT-15

Cc1ccccc1CN1CC2=C(CCN(Cc3ccccc3)C2=O)N2CCN=C12
inactive: 786-0 8.89 µM | A498 13.1 µM | A549 4.76 µM | ACHN 6.61 µM | BT-549 14.8 µM | CAKI-1 4.69 µM | COLO 205 1.86 µM | DU-145 6.14 µM | EKVX 6.32 µM | HCC 2998 4.06 µM | HCT-116 4.06 µM | HL-60 3.78 µM | HOP-62 9.16 µM | HOP-92 21.6 µM | HT-29 5.31 µM | Hs-578T 14.4 µM | IGROV-1 > 100 µM | K562 2.96 µM | KM12 46.2 µM | LOX IMVI 3.49 µM | M14 6.4 µM | MCF7 4.86 µM | MDA-MB-231 4.45 µM | MDA-MB-435 4.74 µM | MOLT-4 9.66 µM | NCI-H226 3.56 µM | NCI-H23 4.62 µM | NCI-H460 4.24 µM | NCI-H522 3.73 µM | NCI/ADR-RES 4.09 µM | OVCAR-3 4.48 µM | OVCAR-4 3.27 µM | OVCAR-5 8.41 µM | OVCAR-8 4.76 µM | PC-3 3.58 µM | RPMI-8226 1.55 µM | RXF 393 54 µM | SF-268 6.87 µM | SF-295 3.21 µM | SF-539 52.4 µM | SK-MEL-28 29.2 µM | SK-MEL-2 4.81 µM | SK-MEL-5 2.63 µM | SK-OV-3 7.78 µM | SN12C 5.6 µM | SNB-19 6.79 µM | SNB-75 6.08 µM | SR 4.59 µM | SW-620 4.5 µM | T47D 4.8 µM | TK-10 7.35 µM | U-251 4.8 µM | UACC-257 3.5 µM | UACC-62 11.1 µM | UO-31 6.81 µM
5.04 µM: HCT-15
